Results from publication PMC11571215, “Optimization of Antiproliferative Properties of Triimine Copper(II) Complexes” (Journal of Medicinal Chemistry, 2024).

Legend:
[1] = target: T1, bovine serum albumin (BSA) (Bos taurus, UniProt P02769); test: Interaction with bovine serum albumin (UV-vis, fluorescence); type: binding; conditions: 24 h, 37 °C; for BSA UV-Visible absorbance change: BSA 20 µM, complexes 10, 25 and 50 µM; for BSA fluorescence quenching: BSA 20 μM, complexes 10-100 µM, excitation 278 nm
T1 construct: composed of single polypeptide chains with 583 amino
Protocol: All solutions used to perform the BSA interaction assays were diluted in filtered buffer (10 mM phosphate buffer and 150 mM NaCl) pH 7.0, with BSA at a fixed final concentration of 20 μM and the concentrations of the complexes varying from 10 to 100 μM. Control solutions were also prepared, namely, a solution containing only BSA, a solution consisting of BSA + DMSO, and a solution consisting of DMSO only. Solutions were analyzed after 24 h of incubation at 37 °C. UV–visible absorption spectra were acquired using the Evolution 300 UV–vis (Thermo Fisher Scientific, Waltham, MA, USA) in the wavelength range between 245 and 500 nm in quartz cuvettes. The fluorescence of the samples mentioned was analyzed using a Cary Eclipse fluorimeter (VARIAN, California, USA). The BSA molecule was excited at 278 nm (maximum absorption peak), and emission was recorded between 290 and 500 nm. The setup was set at a slow speed (120 nm/min) using 5 nm slits. The absorbance value of the buffer containing DMSO (at the respective percentages) was subtracted from that of each sample.
12. Interaction with Bovine Serum Albumin (BSA)
In the perspective of translating the complexes into clinical practice and considering their administration and distribution in the human body, it is essential to examine their potential interaction with albumin, a protein present in human plasma at high concentrations. In this regard, bovine serum albumin (BSA) was utilized as a model. BSA is the most abundant plasma protein in vertebrates, sharing approximately 76% similarity with human serum albumin (HSA) and composed of single polypeptide chains with 583 amino […]
UV-Visible spectroscopy is an effective method for predicting conformational changes in proteins when interacting with small molecules such as drugs. The interaction of BSA […]
spectroscopy, considering the intrinsic fluorescence of tryptophan residues in BSA. Figure […]
DMSO and BSA in the presence of increasing concentrations of the metallic complexes.
(1 picture or pasted object on this page, not shown here)

[2] = Stability/solubility in RPMI culture medium by UV-vis; type: physicochemical; conditions: 50 μM, without phenol red and FBS, 0 to 3 h, 37 °C
Protocol: The complexes (powder form) were first dissolved in 100% (v/v) DMSO and subsequently in RPMI culture medium without phenol red and fetal bovine serum (FBS), at a final concentration of 50 μM. Absorption spectra were recorded in the wavelength range of 220–800 nm. As previously, high-energy absorption bands corresponding to π → π* and n → π* transitions with peaks between 230 and 380 nm ranges were observed, which may correspond to the aromatic rings of terpyridine.[24],[38]
Copper complex stability in a biological medium was analyzed through UV–vis spectroscopy spanning a range from 220 to 800 nm. Complexes were dissolved in 100% (v/v) DMSO and subsequently diluted with RPMI medium (without phenol red) to achieve a final concentration of 50 μM. The measurements were conducted in a quartz cuvette with a 1 cm path length. Spectral analyses were obtained after 0, 3, 6, 24, and 48 h on the Evolution 300 UV–vis spectrophotometer (Thermo Fisher Scientific in Waltham, MA, USA).

calf-thymus DNA (ctDNA) = test: Ethidium bromide displacement assay; type: binding; conditions: for Ksv (Stern-Volmer constant): ctDNA-EB adduct in PBS buffer, EB 50 μM
Source text: Compounds that intercalate between DNA base pairs equally or more strongly than EB replace it from the adduct ctDNA-EB, which results in a noticeable decrease or quenching of the fluorescence emission. […] For both Cu1a and Cu1b, the decrease in the fluorescence intensity of ctDNA-EB with increasing complex concentrations fulfills the linear Stern–Volmer equation (eq 3)[90]: [drawing 6] 3
The apparent binding constants (Kapp) are estimated using eq 4: [drawing 7] 4 (where KEB = 1.0 × 10^7 M^–1, [EB] is the EB concentration (50 μM), [Q50] is the complex concentration at 50% reduction of EB fluorescence intensity, estimated based on the linear Stern–Volmer plot for I^0/I = 2). Kapp is equal to 1.75 × 10^5 M^–1 for Cu1a and 2.35 × 10^6 M^–1 for Cu1b. […] Nevertheless, both Cu(II) complexes show rather moderate ability to replace EB from the adduct with ctDNA.[21]
Ethidium bromide (EB) and calf-thymus DNA (ctDNA) were purchased from Sigma-Aldrich and Thermo Fisher Scientific, respectively. Prior to experiments, a solution containing 10 mg/mL of ctDNA in DNase-free and RNase-free distilled, deionized water was spectroscopically monitored at 260 nm and at 280 nm to determine the concentration and check the purity.
The ethidium bromide (EB) fluorescence displacement assay was carried out using a Hitachi F-7000 spectrofluorometer. An equimolar amount (50 μM) of EB solution was added to ctDNA solution at room temperature, followed by 2 h incubation in the dark. The compound was then titrated into the EB–ctDNA mixture, well mixed, and allowed to stand for 30 min. The concentrations of the complexes varied from 0 to 40 μM.

[3] = tested on: normal human primary dermal fibroblasts; test: MTS cell viability assay, normal fibroblasts; type: cell-based; conditions: 48 h of exposure
Protocol: The antiproliferative effect of the Cu(II) complexes in tumor and healthy cell lines was assessed through the MTS assay, a colorimetric method that is widely used to evaluate cellular viability, specifically mitochondrial viability.[53],[54] Cellular viability was determined after 48 h exposure to a concentration range (0.1–50 μM) of Cu(II) complexes in three tumor cell lines. […] Additionally, the viability of healthy primary dermal fibroblasts was performed as a comparison of the complexes’ antiproliferative effects in normal cells.
Cellular viability assays were performed using HCT116, HCT116-DoxR, and A2780 cancer cell lines as well as normal human primary fibroblasts. Cells were seeded at a density of 0.75 × 10^5 cells/mL in 96-well plates and incubated at 37 °C with 5% (v/v) CO2 for 24 h. After this incubation period, the copper complexes were accurately weighed and immediately dissolved in 100% (v/v) dimethyl sulfoxide (DMSO). Subsequently, the complexes were diluted to the final concentration using a cell culture medium. The culture medium in each well was replaced with fresh medium containing varying concentrations of the complexes (ranging from 0.01 to 50 μM). Negative controls contained culture medium with 0.1% (v/v) DMSO, and positive controls contained 0.4 μM Dox.
After an additional 48 h of incubation under the same conditions, cellular viability was assessed using the CellTiter 96 Aqueous One Solution Cell Proliferation Assay kit (Promega, Madison, USA). […] The absorbance of formazan, measured at 490 nm in a microplate reader (Tecan Infinite M200, Tecan, Männedorf, Switzerland), is directly proportional to the number of viable cells.[104]
The cell viability versus concentration graphics were analyzed using Prism 8 software (GraphPad) to determine the half-maximal inhibitory concentration (IC50) of each complex for the respective cell line. Additionally, the selective index (SI) for each complex was calculated by dividing the IC50 of human fibroblasts by the IC50 values of the tested cancer cell lines.

T1 sequence (P02769 25-607): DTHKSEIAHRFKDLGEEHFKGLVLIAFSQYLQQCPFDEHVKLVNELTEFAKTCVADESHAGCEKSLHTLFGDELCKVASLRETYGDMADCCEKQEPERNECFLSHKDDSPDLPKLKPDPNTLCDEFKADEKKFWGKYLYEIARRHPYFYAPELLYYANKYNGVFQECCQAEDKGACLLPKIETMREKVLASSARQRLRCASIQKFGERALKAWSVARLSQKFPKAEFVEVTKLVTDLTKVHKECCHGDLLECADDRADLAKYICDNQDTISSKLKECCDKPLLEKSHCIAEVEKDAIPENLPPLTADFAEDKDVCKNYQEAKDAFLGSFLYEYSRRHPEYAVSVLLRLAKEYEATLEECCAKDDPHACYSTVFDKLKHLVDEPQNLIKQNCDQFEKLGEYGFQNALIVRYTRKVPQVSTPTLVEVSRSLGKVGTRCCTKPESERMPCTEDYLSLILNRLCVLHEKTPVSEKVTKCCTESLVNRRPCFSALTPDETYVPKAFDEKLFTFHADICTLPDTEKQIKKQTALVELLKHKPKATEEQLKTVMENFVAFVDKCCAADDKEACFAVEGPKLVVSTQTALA

SMILES: [Cl][Cu-3]12([Cl])[n+]3ccccc3-c3cc(-c4cccc5ccccc45)cc([n+]31)-c1cccc[n+]12 [Cu1a]
- BSA UV-Visible absorbance change [1]: hypochromism
- BSA fluorescence quenching [1]: attenuation of BSA fluorescence was observed
- solubility/stability in RPMI culture medium [2]: maintenance of solubility
- Ksv (Stern-Volmer constant) (calf-thymus DNA (ctDNA)): 3.8 × 10^3 M^–1
- IC50 [3]: 9.26 ± 0.9 µM

SMILES: [Cl][Cu-3]12([Cl])[n+]3ccccc3-c3cc(-c4ccc5ccccc5c4)cc([n+]31)-c1cccc[n+]12 [Cu1b]
- BSA UV-Visible absorbance change [1]: hypochromism
- BSA fluorescence quenching [1]: an increased quenching effect was observed
- solubility/stability in RPMI culture medium [2]: a slight reduction of its solubility from 0 to 3 h
- Ksv (Stern-Volmer constant) (calf-thymus DNA (ctDNA)): 4.7 × 10^3 M^–1
- apparent binding constant Kapp (calf-thymus DNA (ctDNA); eq 4, KEB = 1.0 × 10^7 M^–1, [EB] 50 μM): 2.35 × 10^6 M^–1
- IC50 [3]: 13.3 ± 1 µM
